Reference: PubChem BioAssay (NCI)
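Where inhibition never reached the appropriate level, the endpoint shown equals the highest concentration tested. Otherwise, values were interpolated linearly from a five-concentration, 48-hour dose response in 96-well plates. GI50 marks 50% less growth. Definition used: TGI = concentration required for complete inhibition of growth.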

Columns and labels:
Assay in all cases: NCI anticancer screen, dose series, 48 h
EKVX NSCLC = tested on: EKVX NSCLC
OVCAR-5 ovarian = tested on: OVCAR-5 ovarian
HCC-2998 colon = tested on: HCC-2998 colon
A498 renal = tested on: A498 renal
K-562 leukemia = tested on: K-562 leukemia
LOX IMVI melanoma = tested on: LOX IMVI melanoma
TK-10 renal = tested on: TK-10 renal
SK-OV-3 ovarian = tested on: SK-OV-3 ovarian
SF-539 CNS = tested on: SF-539 CNS
UO-31 renal = tested on: UO-31 renal

Row | SMILES | TGI (EKVX NSCLC) [µM] | TGI (OVCAR-5 ovarian) [µM] | TGI (HCC-2998 colon) [µM] | TGI (A498 renal) [µM] | TGI (K-562 leukemia) [µM] | TGI (LOX IMVI melanoma) [µM] | TGI (TK-10 renal) [µM] | TGI (SK-OV-3 ovarian) [µM] | TGI (SF-539 CNS) [µM] | TGI (UO-31 renal) [µM] | GI50 (EKVX NSCLC) [µM] | GI50 (OVCAR-5 ovarian) [µM] | GI50 (HCC-2998 colon) [µM] | GI50 (UO-31 renal) [µM] | GI50 (A498 renal) [µM] | GI50 (K-562 leukemia) [µM] | GI50 (TK-10 renal) [µM] | GI50 (SK-OV-3 ovarian) [µM] | GI50 (SF-539 CNS) [µM]
1 | Cc1ccc(-c2cc(-c3ccc(Cl)cc3)nc(/N=C3\C(=O)N(CN4CCOCC4)c4ccccc43)n2)cc1 | > 100 | 67.9 | 34 | 38.9 | 76.8 | 50.5 | 81.7 | > 100 | 36.5 |  |  |  |  |  |  |  |  |  | 
2 | COC(=O)C(=O)C(C(=O)C1=NS(=O)(=O)c2cc(S(N)(=O)=O)c(Cl)cc2N1)c1nc2ccc(C(=O)c3ccccc3)cc2[nH]c1=O (configuration not stated) | > 100 | > 100 | > 100 | > 100 | > 100 |  | > 100 |  | > 100 | > 100 |  |  |  |  |  |  |  |  | 
3 | CC(N)C(=O)OCN1C(=O)C2C3C=CC(C2C1=O)C1C2C(=O)N(COC(=O)C(C)N)C(=O)C2C31 (configuration not stated) | > 100 | > 100 | 97.9 |  | 77 | 35.8 | > 100 | > 100 | 47.2 | > 100 |  |  |  |  |  |  |  |  | 
4 | CCN1CCN(c2nc3ccccc3nc2C(=O)c2ccc(OC)cc2)CC1 | > 100 | > 100 | > 100 | > 100 | > 100 | > 100 | 70.4 | > 100 | > 100 | > 100 |  |  |  |  |  |  |  |  | 
5 | C=C1C(=O)OC2/C=C(\C)C3OC3/C=C(/C(=O)OC)C(O)C(OC(=O)C3(C)OC3C)C12 (configuration not stated) | 7.44 | 30.4 | 4.66 | 19.6 | 14.3 | 3.75 | 9.14 | 26.4 | 5.46 | 27.3 |  |  |  |  |  |  |  |  | 
6 | CS/C(C#N)=C(\C#N)SC | 62.2 | > 100 | 20.9 | 47.7 | 48.4 | > 100 | 20.7 |  | 34.1 | 18.9 |  |  |  |  |  |  |  |  | 
7 | Cc1ccccc1[P+](C)(c1ccccc1C)c1ccccc1C | 35 | 33.5 | 12.6 | 49.9 |  | 30.5 | 36.8 | > 100 | 40.8 | 34.8 |  |  |  |  |  |  |  |  | 
8 | CN(C)CC1CCCC(CN2CCCCC2)C1=O (configuration not stated) | 28.7 | 46.5 | 33.4 | > 71.3 |  | 18.3 | 21.3 | > 100 | 33.6 | 26.7 |  |  |  |  |  |  |  |  | 
9 | [O-]c1c[n+](CCCC[n+]2cc([O-])on2)no1 | > 100 | > 100 | > 100 | > 100 | > 100 | > 100 | > 100 | > 100 | > 100 | > 100 |  |  |  |  |  |  |  |  | 
10 | CC1=C(C#N)C23C(=O)c4ccccc4C(O)=C2C(=O)C=CC3(O)N1 (configuration not stated) | > 100 | 36.3 | 23 | 37.6 | > 100 | 18.9 | 35.7 | > 100 | 8.83 | 7.55 |  |  |  |  |  |  |  |  | 
11 | Cn1cc(-c2csc(-c3cn(C)c4ccc(Br)cc34)n2)c2cnccc21 | 3.48 | 3.22 | 3.57 | 3.67 | 0.563 |  | 3.22 | 3.6 | 3.23 | 3 | 1.86 | 1.78 | 1.9 | 1.63 | 1.78 | 0.239 | 1.71 | 1.99 | 1.8
12 | Oc1cccc(-c2ccc3c4c2O[C@H]2c5[nH]c6ccccc6c5C[C@@]5(O)[C@@H](C3)N(CC3CC3)CC[C@]425)c1 | 29.7 | 4.3 |  |  |  | 3.19 | 4.34 |  | 3.14 | 3.03 |  |  |  |  |  |  |  |  | 
13 | Cc1cccc(O)c1-c1nnc(CCCCCCCCc2nnc(-c3c(C)cccc3O)n2N)n1N | > 100 | > 100 | > 100 | > 100 | > 100 | > 100 | > 59 | > 100 | > 100 | > 100 |  |  |  |  |  |  |  |  | 
14 | O=c1oc2ccccc2n1P(=O)(n1c(=O)oc2ccccc21)n1c(=O)oc2ccccc21 | > 100 | > 100 | > 100 | > 100 | > 100 | > 100 | > 100 | > 100 | > 100 | > 100 |  |  |  |  |  |  |  |  | 
